According to patent US9963474B2, “Mitochondria-targeted dicarbonyl sequestering compounds” (MEDICAL RESEARCH COUNCIL, priority 2013, dated 2018):

Tests used:
[1] = Reaction rate with methylglyoxal (UV/Vis and fluorometric kinetics); settings: 37° C., means±SE, n=3
Description: (A) The reactions between MitoG (100 μM) and 1,2-dicarbonyls (25 μM) at 37° C. were followed from the formation of the quinoxaline products at 345 nm. (B) Fluorimetric detection of the reaction between MitoG and methylglyoxal (40 μM each), and between MitoG and glyoxal (200 μM each) was observed by monitoring the quinoxaline products at excitation and emission wavelengths of 344 and 433 nm, respectively. The changes in fluorescence caused by MQE and QE formation was quantified from calibration curves constructed by plotting fluorescence (excitation and emission wavelengths of 344 and 433 nm, respectively) against known amounts of either quinoxaline and were linear up to at least 20 μM.
TPP-conjugated compounds were made up as 10 mM stock solutions in DMSO, flushed with argon and stored as aliquots at −20° C. […] The molar extinction coefficients were calculated from the absorbance at maximal absorption (λmax) for the compounds for solutions of known concentration. Reaction rates between MitoG and 1,2-dicarbonyls were determined from the initial linear slope over the first 30 s at the λmax for the formation of the relevant quinoxaline. Fluorescence spectra were obtained in 2.5 ml KCl buffer using a Shimadzu RF-301PC fluorimeter with slit widths of 3 nm. […]

[2] = Stability of compounds assessed by RP-HPLC; assay type: physicochemical
Description: RP-HPLC was performed using a Gilson 321 pump with a C18 column (Jupiter 300 Å, Phenomenex) with a Widepore C18 guard column (Phenomenex). Samples (1 ml) were injected through a 0.22 μm PVDF filter (Millex, Millipore). HPLC buffer A [0.1% TFA in water] and HPLC buffer B (90% acetonitrile and 0.1% TFA) were used and a gradient was run at 1 ml/min at room temperature as follows: 0-2 min—5% B; 2-17 min—5-100% B; 17-19 min—100% B; 19-22 min—100-5% B. Peaks were detected by absorbance at 220 nm (UV/Vis 151, Gilson) and by fluorescence (excitation and emission wavelengths of 344 and 433 nm; RF-10AXL, Shimadzu). Partition coefficients between PBS and octan-1-ol were determined as previously described.
The syntheses of MitoG, its predicted quinoxaline products upon reaction with methylglyoxal and glyoxal, and their deuterated versions are summarized in FIG. 2. As expected, the spectrum of MitoG was a summation of those of the phenylenediamine, hexyloxyphenylenediamine (HP), and a simple alkylTPP salt.
The expected products of the reaction of MitoG with methylglyoxal (MQE) and glyoxal (QE) were synthesized and have UV/Vis absorption spectra distinct from that of MitoG (FIG. 3B). Both QE and MQE were fluorescent, while MitoG was not (FIG. 3C). The three compounds were resolved by RP-HPLC (FIG. 3D) although the MQE regioisomers (MQE1, MQE2; FIG. 1B) were not distinguished. Both MQE and QE were stable after one week at 37° C. as assessed by RP-HPLC (data not shown). It was concluded that MitoG is sufficiently stable for biological experiments involving trapping of glyoxal and methylglyoxal within mitochondria in cells and in vivo, and the reaction products MQE and QE were both robustly stable for chemical isolation and subsequent LC-MS/MS analyses.

decomposition of dilute solutions, loss by 4 h ([2]; 37° C., 4 h): minimal loss
decomposition of dilute solutions, loss by 24 h ([2]; 37° C., 24 h): significant loss
duration of biological experiments for which sufficiently stable ([2]; dilute solutions, 37° C.): ~4 h
stability of stock solutions ([2]; storage at −20° C., RP-HPLC): stable
SMILES: Nc1ccc(OCCCCCC[P+](c2ccccc2)(c2ccccc2)c2ccccc2)cc1N [MitoG, (6-(3,4-Diaminophenoxy)hexyl)triphenylphosphonium chloride]
rate constant for reaction with methylglyoxal [1]: 19 ± 1 M⁻¹ s⁻¹
